From patent publication US10556900B2, “TrkA kinase inhibitors, compositions and methods thereof” (Merck Sharp & Dohme Corp., priority 2015, dated 2020) come the findings set out here.

In the test the target is human TrkA receptor (Homo sapiens (Human), UniProt P04629). The experiment in a line: TrkA functional activity, DiscoverX PathHunter assay (NGF-stimulated U2OS cells). The class given is cell-based. As to conditions: U2OS cells expressing human TrkA-Prolink, Shc1-EA and p75NTR; compound 1 h, then NGF (~80% of maximal response) 3 h; luminescence. Put shortly:
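U2OS cells co-expressing human TrkA-PK fusion, Shc1-EA and p75NTR were pre-incubated 1 h with compound, then stimulated 3 h at ambient temperature with NGF at ~EC80. Shc1 recruitment to phosphorylated TrkA read as β-galactosidase complementation by chemiluminescence after 1 h detection.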

Sequence of human TrkA receptor (P04629 33-796): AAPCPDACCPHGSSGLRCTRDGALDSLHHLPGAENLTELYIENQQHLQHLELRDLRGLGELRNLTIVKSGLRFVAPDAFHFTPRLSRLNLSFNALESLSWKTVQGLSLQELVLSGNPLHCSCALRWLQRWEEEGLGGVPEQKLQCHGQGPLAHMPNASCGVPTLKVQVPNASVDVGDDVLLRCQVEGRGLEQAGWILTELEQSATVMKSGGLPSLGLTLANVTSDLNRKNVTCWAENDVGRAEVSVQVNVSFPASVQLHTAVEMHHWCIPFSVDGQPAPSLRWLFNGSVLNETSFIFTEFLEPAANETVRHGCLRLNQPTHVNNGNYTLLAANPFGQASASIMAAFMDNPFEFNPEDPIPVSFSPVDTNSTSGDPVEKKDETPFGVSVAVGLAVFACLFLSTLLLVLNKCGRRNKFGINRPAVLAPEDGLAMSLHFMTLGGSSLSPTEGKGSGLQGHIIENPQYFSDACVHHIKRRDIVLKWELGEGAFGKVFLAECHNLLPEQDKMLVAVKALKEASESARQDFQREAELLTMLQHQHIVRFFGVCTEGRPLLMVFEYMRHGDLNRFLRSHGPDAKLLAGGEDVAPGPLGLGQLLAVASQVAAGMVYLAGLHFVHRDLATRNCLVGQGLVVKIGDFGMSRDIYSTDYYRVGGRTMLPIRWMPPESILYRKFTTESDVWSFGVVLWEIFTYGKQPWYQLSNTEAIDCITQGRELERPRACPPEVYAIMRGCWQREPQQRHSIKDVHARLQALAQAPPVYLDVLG

The IC50 is the concentration that gives 50% inhibition. Lower therefore signals greater potency in that assay. Take `CC(C)(O)c1cnc2c(NC(=O)c3cc(-c4ccccn4)c(C(F)(F)F)cc3Cl)c(-c3ccccc3)ccn12` [Compound 18, 2-chloro-N-[3-(1-hydroxy-1-methylethyl)-7-phenylimidazo[1,2-a]pyridin-8-yl]-5-pyridin-2-yl-4-(trifluoromethyl)benzamide]: half-maximal inhibition (IC50) required 6.7 nM.

`CC(C)(O)c1ncn2c(NC(=O)c3cc(-c4ncccn4)c(C(F)(F)F)cc3F)c(-c3ccccc3)ccc12` [Compound 59] came in with an IC50 of 25 nM.
